Values quoted from earlier work, collected in paper PMC10656230, “Disruption of the productive encounter complex results in dysregulation of DIAPH1 activity” (The Journal of Biological Chemistry, 2023).

Columns and labels:
DID = settings: DAD without RRKR motif vs
Description: Chemical shifts (δ) and cross peak intensities (I) were monitored by using heteronuclear single–quantum coherence (^1H-^15N HSQC) NMR spectroscopy ([38]) (Fig. S1A). […] Negligible perturbations occurred beyond a 1:1 mole ratio, indicating a 1:1 stoichiometry for the complex. […] H ...

DID E273K = settings: DID mutation E273K, no 2- to 3-fold decrease
Description: (§1) Our findings identify E326 and E327 as critical for binding (Figs. 3D, 4 and S1). The E326 and E327 acidic patch is located greater than 30 Å away from the Rho GTPase binding site and represents a new surface for DIAPH1 regulation (Fig. S4B) ([25]). Interruption of the electrostatic interaction between the basic RRKR motif an ...

DID R278E = settings: DID mutation R278E, no 2- to 3-fold decrease
Description: as §1

## DETGVMDSLLEALQSGAAFRRKRGPRQAN [DAD]
DID
  decrease in DID-DAD binding affinity on removal of the RRKR motif of DAD: 5 fold
DID E273K
  decrease in DID-DAD binding affinity: did not
DID R278E
  decrease in DID-DAD binding affinity: did not
